From patent US20100297156A1, “ANALOGUES OF PHOSPHATIDYLINOSITOL MANNOSIDES” (INDUSTRIAL RESEARCH LIMITED, priority 2006, published 2010)

Key:
[1] = system: bovine dendritic cells (DC); experiment: IL-12 induction in in vitro bovine dendritic cell (DC) assay, IL-12 ELISA; assay type: cell-based; settings: 50 μg of each compound; supernatants collected 48 hours after stimulation
Procedure: Peripheral blood mononuclear cells (PBMCs) were isolated from heparinized blood of cattle by density-gradient centrifugation. Cells were adjusted to 10^7/ml in RPMI-1640 medium containing 10% heat-inactivated FCS, 10 mM HEPES, 5×10^−5 M 2-mercaptoethanol. Non-adherent cells were removed after 3 hours by washing with warm phosphate buffered saline (PBS). Adherent cells were then incubated in complete medium with 0.2 U/mI of recombinant bovine GM-CSF and 200 U/ml of recombinant bovine IL-4 (Both from Serotec, Oxford, UK), replenished daily. After 3-4 days, fresh media and cytokines were added to cells. Cells were harvested after 7-10 days of culture, washed three times and adjusted to desired cell numbers. […]
(§1) Plates (Maxisorp, Nunc, Denmark) were coated with 8 μg/ml anti-IL-12 (B @ D Pharmaceuticals) and incubated overnight at room temperature. […] Following the final washing step, TMB substrate was added, the reaction was stopped by the addition of H2SO4, and the absorbance values were read at 450 nm.
Th1 inducing activities of compounds 1.9 and 2.5 were tested in an in vitro bovine dendritic cell (DC) assay (FIG. 1). […] Supernatants were collected 48 hours after stimulation, and IL-12 levels measured.

[2] = system: mouse dendritic cells (DC); experiment: IL-12 induction in in vitro mouse dendritic cell (DC) assay, IL-12 ELISA; assay type: cell-based; settings: 50 μg of each compound; supernatants collected 48 hours after stimulation
Procedure: Bone marrow contents of C57BU6 mice were obtained from the femurs, by flushing the inside of the bones with media (see below). Cells were then incubated in complete medium with 0.2 U/mI of recombinant GM-CSF and 200 U/ml of recombinant IL-4 (Both from Serotec, Oxford, UK), replenished daily. After 3-4 days, fresh media and cytokines were added to cells. Cells were harvested after 7-10 days of culture, washed three times and adjusted to desired cell numbers. When harvested, cells were more than 95% DCs based on the following: DCs lacked B and T cells markers had high expression of MHC class 2 and class 1 (Serotec), and had low expression of CD11a (Serotec) and CD14 (Serotec), and expressed CD11c (Serotec). […]
as §1
IL-10 and IL-12 inducing activities of compounds 1.9, 2.5, 3.5, 4,6, 5.3, 6.2, 7.10, 8.6, 9.2, and 10.3 were tested in an in vitro mouse dendritic cell (DC) assay (FIG. 2). […] Supernatants were collected 48 hours after stimulation, and IL-12 and IL-10 levels measured.

With `CCCCCCCCCCCCCCCCO[C@H](COC(=O)CCCCCCCCCCCCCCC)COP(=O)(O)O[C@@H]1C(O[C@H]2OC(CO)[C@@H](O)[C@H](O)C2O)C(O)[C@@H](O)[C@H](O)C1O[C@H]1OC(CO)[C@@H](O)C(O)[C@H]1O` (stereo partly drawn) [Compound 1.9, 2,6-(Di-O-α-D-mannopyranosyl)-1-O-(1-O-hexadecanoyl-2-O-hexadecyl-sn-glycero-3-phosphoryl)-D-myo-inositol] the “Induction of IL-12 on bovine dendritic cells” value [1] was “very high levels of IL-12” and the “Induction of IL-12 on mouse dendritic cells” value [2] was “the most potent inducing more IL-12 than the positive controls MPL and PAMCSK”.

`CCCCCCCCCCCCCCCCOC[C@H](COP(=O)(O)O[C@@H]1C(O[C@H]2OC(CO)[C@@H](O)[C@H](O)C2O)C(O)[C@@H](O)[C@H](O)C1O[C@H]1OC(CO)[C@@H](O)C(O)[C@H]1O)OC(=O)CCCCCCCCCCCCCCC` (stereo partly drawn) [Compound 4.6, 2,6-(Di-O-α-D-mannopyranosyl)-1-O-(2-hexadecanoyl-1-O-hexadecyl-sn-glycero-3-phosphoryl)-D-myo-inositol] was tested, and the “Induction of IL-12 on mouse dendritic cells” value [2] was “the most potent inducing more IL-12 than the positive controls MPL and PAMCSK”.
